Patent US20070218555A1, “Anti-Microbial Activity Of Biologically Stabilized Silver Nano Particles” (priority 2004, published 2007)

Experiments:
[1] = system: Pseudomonas aeruginosa MDR strain; experiment: Interaction of drugs with silver nano particles, checkerboard macrodilution (FICI); type: cell-based; conditions: drug in combination with biologically stabilized silver nano particles
Procedure: Interaction of drugs with biologically stabilized silver nano particles. A two-dimensional checkerboard macrodilution technique was used to characterize interactions between biologically stabilized silver nano particles and drug (viz. Gentamicin, Penicillin, Cefotaxime, Ceptazidime, Kanamycin, Vancomycin). six experiments were performed for Pseudomonas aeruginosa MDR strain described above. Inoculum was prepared similarly to those for susceptibility testing. Individual drug with biologically stabilized silver nano particles were diluted in serial twofold dilutions, and concentrations ranged from four fold below to four folds above the MIC. The highest dilution of the drug combination with biologically stabilized silver nano particles that inhibits the visible growth of the test organism was regarded as the fractional inhibitory concentration (FIC). The fractional inhibitory concentration (FIC) index (FICI) was used to define the interaction between the two drugs. The FICI is the sum of the FICs of each of the drugs. The FIC was calculated as follows: MIC of the drug tested in combination/MIC of the drug tested alone. The interaction was defined as synergistic if the FICI was […], as additive if the FICI was >0.5 to 1.0, as indifferent if the FICI was >1.0 to 2.0, and as antagonistic if the FICI was >2.0.

[2] = system: human dermal fibroblast cells; conditions: cited from earlier work

Compound	interaction by mean FICI [1]	low concentration of silver ions showing inhibitory effect [2]
CC(C)(O/N=C(\C(=O)N[C@@H]1C(=O)N2C(C(=O)[O-])=C(C[n+]3ccccc3)CS[C@H]12)c1csc(N)n1)C(=O)O [ceptazidime]	partially synergistic	
O=[N+]([O-])[O-].[Ag+] [silver nitrate]		8.2 μM/l
